From patent publication US9475806B2, “Complement factor B inhibitors and uses there of” (Novartis AG, priority 2013, dated 2016) come the findings set out here.

Where two headings read alike, the source gives them in different places.

Test [1] deals with T1, Recombinant human factor B (Homo sapiens (Human), UniProt P00751). The experiment in a line: biochemical.
Test [2] concerns the target T1, Recombinant human factor B.

T1 sequence (P00751 26-764): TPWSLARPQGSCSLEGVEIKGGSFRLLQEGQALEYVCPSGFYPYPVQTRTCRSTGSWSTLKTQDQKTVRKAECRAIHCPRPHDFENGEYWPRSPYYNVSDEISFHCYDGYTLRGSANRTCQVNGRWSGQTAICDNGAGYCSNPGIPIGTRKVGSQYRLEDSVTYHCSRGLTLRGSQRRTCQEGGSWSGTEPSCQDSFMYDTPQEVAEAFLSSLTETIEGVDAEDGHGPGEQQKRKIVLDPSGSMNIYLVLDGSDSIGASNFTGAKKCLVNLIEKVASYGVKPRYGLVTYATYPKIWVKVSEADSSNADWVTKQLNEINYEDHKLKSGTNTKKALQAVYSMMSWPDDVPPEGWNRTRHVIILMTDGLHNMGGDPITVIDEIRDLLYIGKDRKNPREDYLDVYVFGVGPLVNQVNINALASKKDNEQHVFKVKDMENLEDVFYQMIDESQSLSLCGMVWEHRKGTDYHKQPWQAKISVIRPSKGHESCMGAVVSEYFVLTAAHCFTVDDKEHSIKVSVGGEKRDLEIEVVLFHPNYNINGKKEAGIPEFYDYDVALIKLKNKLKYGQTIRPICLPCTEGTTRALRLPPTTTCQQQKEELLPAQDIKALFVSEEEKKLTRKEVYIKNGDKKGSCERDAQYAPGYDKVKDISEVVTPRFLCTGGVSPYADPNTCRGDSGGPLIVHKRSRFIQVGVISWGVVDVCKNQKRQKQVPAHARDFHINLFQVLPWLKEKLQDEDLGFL

Consider `CCc1cc(C)c2[nH]ccc2c1C(C)(NC)c1nc2cc(C#N)cnc2[nH]1` (racemic) [Example 15-D, (±)-2-(1-(5-Ethyl-7-methyl-1H-indol-4-yl)-1-(methylamino)ethyl)-3H-imidazo[4,5-b]pyridine-6-carbonitrile], for which, in test [1], the IC50 – broadly, the point on the concentration scale where inhibition reaches its midpoint – was 540 nM.

Regarding `Cc1cc(C2CC2)c(C(O)c2nc3cc(C#N)cnc3[nH]2)c2cc[nH]c12` (racemic) [Example 16-G, (±)-2-((5-Cyclopropyl-7-methyl-1H-indol-4-yl)(hydroxy)methyl)-3H-imidazo[4,5-b]pyridine-6-carbonitrile], in test [1], the IC50 turned out to be 460 nM.

In the case of `Cc1cc(C2CC2)c(C(C)(O)c2nc3cc(C#N)cnc3[nH]2)c2cc[nH]c12` (racemic) [Example 17-C, (±)-2-(1-(5-Cyclopropyl-7-methyl-1H-indol-4-yl)-1-hydroxyethyl)-3H-imidazo[4,5-b]pyridine-6-carbonitrile], in test [1], the IC50 worked out at 60 nM.

`Cc1cc(C2CC2)c(C(N)(c2nc3cc(C#N)cnc3[nH]2)C(F)(F)F)c2cc[nH]c12` (racemic) [Example 17-G, (±)-2-(1-Amino-1-(5-cyclopropyl-7-methyl-1H-indol-4-yl)-2,2,2-trifluoroethyl)-3H-imidazo[4,5-b]pyridine-6-carbonitrile]: the IC50 in test [1] came out at 90 nM.

As for `COc1cc(C)c2[nH]ccc2c1C(N)(c1nc2cc(C#N)cnc2[nH]1)C(F)(F)F` (stereo not drawn) [5-B b) (+)], the IC50 in test [2] was 290 nM.

`COc1cc(C)c2[nH]ccc2c1C(O)c1nc2ncc(C#N)cc2[nH]1` (stereo not drawn) [6-C b) (+)]: the IC50 in test [2] worked out at 700 nM.

For `COc1cc(C)c2[nH]ccc2c1C(C)(O)c1nc2cc(C#N)cnc2[nH]1` (stereo not drawn) [7-D b) (+)], in test [2], the IC50 stood at 50 nM.

Consider `COc1cc(C)c2[nH]ccc2c1C(C)(OC)c1nc2cc(C#N)cnc2[nH]1` (stereo not drawn) [8-B b) (+)], for which, in test [2], the IC50 was determined as 720 nM.

Consider `CNC(c1nc2cc(C#N)cnc2[nH]1)(c1c(OC)cc(C)c2[nH]ccc12)C(F)(F)F` (stereo not drawn) [9-D b) (+)], for which the IC50 in test [2] was 1520 nM.

As for `COc1cc(C)c2[nH]ccc2c1C(C)(N)c1nc2cc(C#N)cnc2[nH]1` (stereo not drawn) [10-B b) (+)], the IC50 in test [2] turned out to be 1380 nM.

In the case of `CNC(C)(c1nc2cc(C#N)cnc2[nH]1)c1c(OC)cc(C)c2[nH]ccc12` (stereo not drawn) [11-B b) (+)], in test [2], the IC50 is 3140 nM.

On to `CCc1cc(C)c2[nH]ccc2c1C(O)(c1nc2cc(C#N)cnc2[nH]1)C(F)(F)F` (stereo not drawn) [14-I b) (+)], for which the IC50 in test [2] amounted to 2350 nM.

On to `COc1cc(C)c2[nH]ccc2c1C(C)(C)c1nc2cc(C#N)cnc2[nH]1` [Example 12-D, 2-(2-(5-Methoxy-7-methyl-1H-indol-4-yl)propan-2-yl)-3H-imidazo[4,5-b]pyridine-6-carbonitrile], for which the IC50 in test [1] stood at 40 nM.
